Laboratory results taken from ChEMBL document CHEMBL2311273, “Discovery of potent, selective multidrug and toxin extrusion transporter 1 (MATE1, SLC47A1) inhibitors through prescription drug profiling and computational modeling” (J Med Chem, 2013).

Legend:
Format in all cases: cell-based
[1] = biological target: T1, MATE1 (multidrug and toxin extrusion protein 1) (Homo sapiens, UniProt Q96FL8); experiment: (§1) Inhibition of human MATE1-mediated ASP+ uptake expressed in HEK293 cells at 20 uM after 1.5 mins by fluorescence assay; settings: HEK293 cells expressing human MATE1, probe ASP+
T1 sequence (Q96FL8 whole entry): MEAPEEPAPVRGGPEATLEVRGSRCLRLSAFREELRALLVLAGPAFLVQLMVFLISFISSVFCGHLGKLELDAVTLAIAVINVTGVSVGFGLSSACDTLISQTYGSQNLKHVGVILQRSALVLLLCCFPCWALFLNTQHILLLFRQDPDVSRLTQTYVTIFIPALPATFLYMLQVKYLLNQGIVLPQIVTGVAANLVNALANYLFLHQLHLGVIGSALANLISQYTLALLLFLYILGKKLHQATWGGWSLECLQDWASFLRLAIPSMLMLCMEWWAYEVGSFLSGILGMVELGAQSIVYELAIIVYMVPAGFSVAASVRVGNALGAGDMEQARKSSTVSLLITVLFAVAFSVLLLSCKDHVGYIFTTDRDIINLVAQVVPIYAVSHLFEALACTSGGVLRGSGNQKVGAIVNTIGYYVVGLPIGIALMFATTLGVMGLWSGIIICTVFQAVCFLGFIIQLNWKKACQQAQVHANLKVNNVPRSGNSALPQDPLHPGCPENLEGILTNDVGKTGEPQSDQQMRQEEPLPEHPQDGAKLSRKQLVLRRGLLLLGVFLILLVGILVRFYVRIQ

[2] = biological target: T2, Multidrug and toxin extrusion protein 1 (Homo sapiens, UniProt Q96FL8); experiment: Inhibition of human MATE1-mediated ASP+ uptake expressed in HEK293 cells after 1.5 mins by fluorescence assay
T2 sequence (Q96FL8 whole entry): T1 sequence (Q96FL8 whole entry)

[3] = biological target: T3, Solute carrier family 22 member 2 (Homo sapiens, UniProt O15244); experiment: Inhibition of human OCT2-mediated ASP+ uptake expressed in HEK293 cells after 3 mins by fluorescence assay
T3 sequence (O15244 whole entry): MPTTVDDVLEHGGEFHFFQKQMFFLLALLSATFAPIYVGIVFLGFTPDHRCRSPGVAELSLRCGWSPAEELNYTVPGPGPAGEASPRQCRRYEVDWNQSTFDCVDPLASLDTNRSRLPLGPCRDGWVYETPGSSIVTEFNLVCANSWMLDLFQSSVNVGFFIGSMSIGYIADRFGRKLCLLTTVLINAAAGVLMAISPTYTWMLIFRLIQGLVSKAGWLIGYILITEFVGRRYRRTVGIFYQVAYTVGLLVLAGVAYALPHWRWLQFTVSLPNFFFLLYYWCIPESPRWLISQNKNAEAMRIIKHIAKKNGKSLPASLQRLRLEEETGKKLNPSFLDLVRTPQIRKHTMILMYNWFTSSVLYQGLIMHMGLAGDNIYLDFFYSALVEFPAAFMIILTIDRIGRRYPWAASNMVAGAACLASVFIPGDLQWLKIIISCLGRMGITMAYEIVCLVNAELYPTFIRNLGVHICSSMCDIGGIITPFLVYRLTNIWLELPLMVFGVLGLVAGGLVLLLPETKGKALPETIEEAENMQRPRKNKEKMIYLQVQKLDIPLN

[4] = biological target: T4, Multidrug and toxin extrusion protein 2 (Homo sapiens, UniProt Q86VL8); experiment: Inhibition of human MATE2K-mediated ASP+ uptake expressed in HEK293 cells after 1.5 mins by fluorescence assay
T4 sequence (Q86VL8 whole entry): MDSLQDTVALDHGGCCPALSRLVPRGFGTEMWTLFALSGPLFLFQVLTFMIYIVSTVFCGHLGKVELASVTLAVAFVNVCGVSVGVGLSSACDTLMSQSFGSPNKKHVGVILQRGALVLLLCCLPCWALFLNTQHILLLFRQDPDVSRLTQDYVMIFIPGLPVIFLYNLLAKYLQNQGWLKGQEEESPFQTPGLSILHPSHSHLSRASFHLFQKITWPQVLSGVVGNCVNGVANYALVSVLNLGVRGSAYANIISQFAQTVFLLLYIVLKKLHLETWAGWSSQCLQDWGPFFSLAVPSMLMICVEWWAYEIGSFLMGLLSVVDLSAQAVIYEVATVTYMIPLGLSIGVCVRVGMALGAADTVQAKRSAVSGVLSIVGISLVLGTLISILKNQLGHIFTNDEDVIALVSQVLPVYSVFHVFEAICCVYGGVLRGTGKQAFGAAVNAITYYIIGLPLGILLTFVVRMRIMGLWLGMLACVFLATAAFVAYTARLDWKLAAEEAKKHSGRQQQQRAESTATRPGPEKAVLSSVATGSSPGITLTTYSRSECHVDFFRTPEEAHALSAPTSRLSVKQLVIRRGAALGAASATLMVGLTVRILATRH

[5] = biological target: T2, Multidrug and toxin extrusion protein 1; experiment: as §1; settings: hek293, […], 20 µM

`CCCc1nc2c(C)cc(-c3nc4ccccc4n3C)cc2n1Cc1ccc(-c2ccccc2C(=O)O)cc1` showed an inhibition at […], 20 µM [1] of 38% and an IC50 [2] of 17.9 µM.
With `CNS(=O)(=O)Cc1ccc2[nH]cc(CCN(C)C)c2c1` the inhibition at […], 20 µM [1] was 7% and the IC50 [2] was 6.7 µM.
`CCOC(=O)[C@H](CCc1ccccc1)N[C@@H](C)C(=O)N1CCC[C@H]1C(=O)O` showed an inhibition at […], 20 µM [1] of 23% and an IC50 [2] of over 500 µM.
Compound `COc1ccc(CCN2CCC(Nc3nc4ccccc4n3Cc3ccc(F)cc3)CC2)cc1` [ASTEMIZOLE] has an inhibition at […], 20 µM [1] of 34% and an IC50 [2] of 26.4 µM.
`Nc1ncn([C@@H]2O[C@H](CO)[C@@H](O)[C@H]2O)c(=O)n1` [AZACITIDINE] was tested, and the inhibition at […], 20 µM [1] was 50%.
`O=C1CC2(CCCC2)CC(=O)N1CCCCN1CCN(c2ncccn2)CC1` [BUSPIRONE] showed an IC50 [3] of 12 µM and an IC50 [4] of 46 µM.
For `CN(C)C(=O)COC(=O)Cc1ccc(OC(=O)c2ccc(NC(=N)N)cc2)cc1` [CAMOSTAT], the INH [5] was 77%, the IC50 [3] was 16.5 µM and the IC50 [4] was 12.7 µM.
`Cc1cc(C2CCCCC2)n(O)c(=O)c1` [CICLOPIROX] showed an inhibition at […], 20 µM [1] of 52% and an IC50 [2] of over 500 µM.
`Clc1cccc(Cl)c1N=C1NCCN1` [CLONIDINE] showed an inhibition at […], 20 µM [1] of 1% and an IC50 [2] of 33.3 µM.
With `C[C@]12CCC(=O)C=C1CC[C@@H]1[C@@H]2C(=O)C[C@@]2(C)[C@H]1CC[C@]2(O)C(=O)CO` [CORTISONE] the inhibition at […], 20 µM [1] was 10%.
With `[H]/N=C(/N)c1ccc(NCc2nc3cc(C(=O)N(CCC(=O)O)c4ccccn4)ccc3n2C)cc1` [DABIGATRAN] the IC50 [3] was 4.7 µM, the IC50 [2] was 8.1 µM and the IC50 [4] was 25.3 µM.
For `C[C@@H]1C[C@H]2[C@@H]3CCC4=CC(=O)C=C[C@]4(C)[C@@]3(F)[C@@H](O)C[C@]2(C)[C@@]1(O)C(=O)CO` [DEXAMETHASONE], the inhibition at […], 20 µM [1] was 30% and the IC50 [2] was over 500 µM.
In the case of `O=c1[nH]c2ccccc2n1CCCN1CCC(n2c(=O)[nH]c3cc(Cl)ccc32)CC1` [DOMPERIDONE], the INH [5] is reported as 66%, the IC50 [3] is reported as 7.9 µM and the IC50 [4] is reported as 14.8 µM.
`CC[C@H]1OC(=O)[C@H](C)[C@@H](O[C@H]2C[C@@](C)(OC)[C@@H](O)[C@H](C)O2)[C@H](C)[C@@H](O[C@@H]2O[C@H](C)C[C@H](N(C)C)[C@H]2O)[C@](C)(O)C[C@@H](C)C(=O)[C@H](C)[C@@H](O)[C@]1(C)O` [ERYTHROMYCIN] showed an IC50 [2] of over 500 µM.
`CCOC(=O)c1ccc(OC(=O)CCCCCNC(=N)N)cc1` [GABEXATE] was tested, and the inhibition at […], 20 µM [1] was 96%, the IC50 [3] was 0.9 µM and the IC50 [2] was 0.5 µM. It also gave an IC50 [4] of 10.8 µM.
`CN1C2CCCC1CC(NC(=O)c1nn(C)c3ccccc13)C2` (centres undefined) [GRANISETRON] gave an INH [5] of 67%, an IC50 [3] of 4.3 µM and an IC50 [4] of 311 µM.
`COc1ccc2c(c1)c(CC(=O)O)c(C)n2C(=O)c1ccc(Cl)cc1` [INDOMETHACIN] gave an inhibition at […], 20 µM [1] of 6%.
For `CCCCC1=NC2(CCCC2)C(=O)N1Cc1ccc(-c2ccccc2-c2nnn[nH]2)cc1` [IRBESARTAN], the inhibition at […], 20 µM [1] was 15%.
Work on `CCCCc1nc(Cl)c(CO)n1Cc1ccc(-c2ccccc2-c2nn[nH]n2)cc1` [LOSARTAN] yielded an inhibition at […], 20 µM [1] of 12%.
`O=C(O)c1cccnc1` [NIACIN] showed an inhibition at […], 20 µM [1] of 54%.
For `CCOc1ccc(NC(C)=O)cc1` [PHENACETIN], the inhibition at […], 20 µM [1] was 53%.
Work on `O=c1[nH]c2ccccc2n1C1CCN(CCCC(c2ccc(F)cc2)c2ccc(F)cc2)CC1` [PIMOZIDE] yielded an IC50 [3] of 34.2 µM and an IC50 [4] of over 500 µM.
For `COc1cc2nc(N3CCN(C(=O)c4ccco4)CC3)nc(N)c2cc1OC` [PRAZOSIN], the IC50 [4] was 38.4 µM.
With `C=C[C@H]1C[N@@]2CC[C@H]1C[C@@H]2[C@@H](O)c1ccnc2ccc(OC)cc12` [QUINIDINE] the inhibition at […], 20 µM [1] was 28%.
`CNC(=C[N+](=O)[O-])NCCSCc1ccc(CN(C)C)o1` [RANITIDINE] was tested, and the inhibition at […], 20 µM [1] was 29%.
For `CC(=O)S[C@@H]1CC2=CC(=O)CC[C@]2(C)[C@H]2CC[C@@]3(C)[C@@H](CC[C@@]34CCC(=O)O4)[C@H]12` [SPIRONOLACTONE], the inhibition at […], 20 µM [1] was 27% and the IC50 [2] was 18.6 µM.
For `c1ccc2[nH]c(-c3cscn3)nc2c1` [THIABENDAZOLE], the inhibition at […], 20 µM [1] was 55% and the IC50 [2] was over 500 µM.
